IC100 and melting point data for 13 compounds are collected here from US6380215B1, “Beta-alanine derivative and a process for the preparation thereof” (Fujisawa Pharmaceutical Co., Ltd, priority 1993, dated 2002).

One data set deals with platelets in platelet rich plasma (PRP), aggregation induced by ADP. Put plainly: Effect on Platelet Aggregation Induced by Adenosine Diphosphate (ADP). The note with it: dose required for complete inhibition of platelet aggregation; human PRP 3×10^8 platelets/ml, ADP final 2.5 μM, 37° C., aggregometer. Type of data set: cell-based. The protocol:
Test 1: Effect on Platelet Aggregation Induced by Adenosine Diphosphate (ADP)
Platelet rich plasma (PRP) which contains 3×10^8 platelets/ml was prepared from human blood. To the 225 μl of PRP, 25 μl of drug solution* was added, and then stirred for 2 minutes at 37° C. To the solution 5 μl of ADP (final 2.5 μM) was added as an aggregation inducer. Aggregation was measured by using an aggregometer (NBS HEMA-TRACER 801). Activity of inhibitor (test compound) was expressed as IC100 value i.e. dose required for complete inhibition of platelet aggregation.
Drug solution* — — — Test compound was dissolved in water.
`Cl.O=C(O)CCNC(=O)[C@@H]1CCCN(C(=O)CCC2CCNCC2)C1` [Example 21 (3), N-[(R)-1-{3-(4-piperidyl)propionyl}-3-piperidylcarbonyl]-β-alanine hydrochloride]: the IC100 came to 1000 nM.

Tested on in another data set: not given
Assay: not given
Conditions: not given
In turn, `C[C@H](CC(=O)O)NC(=O)[C@@H]1CCCN(C(=O)CCC2CCNCC2)C1.Cl` gave a melting point of 105 to 108 °C.

For the compound `COc1ccc(CCNC(=O)[C@H](CC(=O)O)NC(=O)[C@@H]2CCCN(C(=O)CCC3CCNCC3)C2)cc1.Cl`, the melting point is 82 °C.

`Cl.O=C(O)CC(NC(=O)[C@@H]1CCCN(C(=O)CCC2CCNCC2)C1)c1ccccc1` (some centres unmarked) showed a melting point of 67 °C.

The compound `CCCCCC(=O)N[C@@H](CNC(=O)[C@@H]1CCCN(C(=O)CCC2CCNCC2)C1)C(=O)O.Cl` displayed a melting point of 156 to 157 °C.

`Cl.O=C(O)CCNC(=O)C1CCCN(C(=O)CCC2CCNCC2)C1` (centres unmarked) came in with a melting point of 70 to 72 °C.

Compound `Cl.O=C(O)CCNC(=O)C1CCN(C(=O)CCC2CCNCC2)CC1` had a melting point of 63 to 65 °C.

Turning to `Cl.O=C(O)CCNC(=O)CC1CCCN(C(=O)CC2CCNCC2)C1` (centres unmarked), the melting point turned out to be 73 °C.

With `Cl.O=C(O)CCNC(=O)CC1CCCN(C(=O)C=C2CCNCC2)C1` (centres unmarked), the melting point turned out to be 63 °C.

For `C#C[C@H](CC(=O)OCc1oc(=O)oc1C)NC(=O)[C@@H]1CCCN(C(=O)CCC2CCNCC2)C1.Cl`, the melting point amounted to 70 °C.

Compound `COC(=O)CCNC(=O)C1CCN(C(=O)CCC2CCN(C(=O)OC(C)(C)C)CC2)CC1` yielded a melting point of 79 °C.

In turn, `COC(=O)CCNC(=O)CC1CCCN(C(=O)C=C2CCN(C(=O)OC(C)(C)C)CC2)C1` (centres unmarked) gave a melting point of 121 °C.

`COC(=O)C[C@H](N)C(=O)NC1CCCN(C(=O)CCC2CCN(C(=O)OCc3ccccc3)CC2)C1.Cl` (some centres unmarked) displayed a melting point of 75 °C.

Consider `Cl.O=C(O)CCNC(=O)[C@@H]1CCCN(C(=O)CCC2CCNCC2)C1` [Example 21 (3), N-[(R)-1-{3-(4-piperidyl)propionyl}-3-piperidylcarbonyl]-β-alanine hydrochloride], for which the melting point stood at 84 °C.
